This note sets out measurements from patent US8618300B2, “Indolizine inhibitors of leukotriene production” (Boehringer Ingelheim International GmbH, priority 2008, dated 2013).

The assay addresses T1, recombinant human FLAP protein (Homo sapiens, UniProt P20292).
T1 construct: made in house; host or cells: Sf9 insect cells (100,000 x g membrane pellet)
T1 sequence (P20292 1-161): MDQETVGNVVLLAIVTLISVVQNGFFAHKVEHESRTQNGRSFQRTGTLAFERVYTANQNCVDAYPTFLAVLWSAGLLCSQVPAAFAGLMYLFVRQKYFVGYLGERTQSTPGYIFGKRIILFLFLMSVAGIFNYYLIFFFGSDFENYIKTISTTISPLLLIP
In words: FLAP binding assay, Scintillation Proximity Assay, displacement of [125I]L-691,831. The following applies: read-out: hFLAP binding IC50. As to the method: Compounds are assessed for the ability to bind to FLAP in a binding assay that measures compound-specific displacement of an iodinated (^1251) FLAP inhibitor via a Scintillation Proximity Assay format (adapted from S. Charleson et al., Mol. Pharmacol., 1992, 41, 873-879).
Cell pellets produced from sf9 insect cells expressing recombinant human FLAP protein are resuspended in buffer A [15 mM Tris-HCl (pH 7.5), 2 mM MgCl2, 0.3 mM EDTA, 1 mM PMSF]. The cells are lysed with a Dounce homogenizer and the material is centrifuged at 10,000×g for 10 minutes. The supernatant is then collected and centrifuged at 100,000×g for 60 minutes. To prepare membrane protein for an assay, an aliquot of the 100,000×g pellet is resuspended in 1 ml of buffer A, Dounce homogenized, and finally subjected to polytron mixing (30 seconds). Membrane protein (25 μl, 5 μg) is mixed with WGA SPA beads (Amersham) and stirred for 1 h. To an assay plate (Perkin Elmer FlexiPlate) is added 25 μl of test compound prepared in Binding buffer [100 mM Tris (pH 7.5), 140 mM NaCl, 5% glycerol, 2 mM EDTA, 0.5 mM TCEP, 0.05% Tween 20], 25 μl of [^125I]L-691,831 (an iodinated analog of MK-591, Charleson et al. Mol. Pharmacol., 41, 873-879, 1992) and finally 50 μl of the bead/protein mixture. (final concentrations: beads, 200 μg/well; protein, 5 μg/well; [^125I] probe, 0 08 nM/well (17 nCi/well). The plates are shaken for 2 h before reading on a Microbeta plate reader. Non-specific binding is determined by the addition of 10 μM cold L-691,831 compound.

pIC50: −log10 of the molar value.

Usually pIC50 stands for the negative decadic logarithm of the IC50, by convention in mol/L. Turning to `COc1ccc(C(=O)c2c(CC(C)(C)C(=O)O)c(C(=O)C(C)(C)C)c3cc(OCc4nc5ccccc5s4)ccn23)cc1`, the negative logarithm of the IC50 (pIC50) was 9.00. Consider `CC(C)(C)C(=O)c1c(CC(C)(C)C(=O)O)c(C(=O)c2ccc(Cl)cc2)n2ccc(OCc3ccccn3)cc12` [3-{3-[(4-chlorophenyl)carbonyl]-1-(2,2-dimethylpropanoyl)-7-(pyridin-2-ylmethoxy)indolizin-2-yl}-2,2-dimethylpropanoic acid], for which the negative logarithm of the IC50 (pIC50) is 7.36. The value for `CCC(C)(Cc1c(C(=O)C(C)(C)C)c2cc(OCc3cccc(C)n3)ccn2c1C(=O)c1ccc(OC)cc1)C(=O)O` (stereo not shown) [2-({1-(2,2-dimethylpropanoyl)-3-[(4-methoxyphenyl)carbonyl]-7-[(6-methylpyridin-2-yl)methoxy]indolizin-2-yl}methyl)-2-methylbutanoic acid] was 8.70; that for `CC(C)(C)C(=O)c1c(CC(C)(C)C(=O)O)c(C(=O)c2ccc(Br)cc2)n2ccc(OCc3ccccn3)cc12` [3-{3-[(4-bromophenyl)carbonyl]-1-(2,2-dimethylpropanoyl)-7-(pyridin-2-ylmethoxy)indolizin-2-yl}-2,2-dimethylpropanoic acid] was 7.00.

As for `COc1ccc(C(=O)c2c(CC(C)(C)C(=O)O)c(C(=O)C(C)(C)C)c3cc(OCc4ccc5ccccc5n4)ccn23)cc1` [3-[1-(2,2-dimethylpropanoyl)-3-[(4-methoxyphenyl)carbonyl]-7-(quinolin-2-ylmethoxy)indolizin-2-yl]-2,2-dimethylpropanoic acid], the pIC50 was 9.00.

Turning to `Cc1nc(COc2ccn3c(C(=O)c4ccccc4)c(CC(C)(C)C(=O)O)c(C(=O)C(C)(C)C)c3c2)cs1` [3-[1-(2,2-dimethylpropanoyl)-7-[(2-methyl-1,3-thiazol-4-yl)methoxy]-3-(phenylcarbonyl)indolizin-2-yl]-2,2-dimethylpropanoic acid], the pIC50 was 7.00. For `Cc1cccc(COc2ccc3c(C(=O)c4ccc(Cl)cc4)c(CC(C)(C)C(=O)O)c(C(=O)C(C)(C)C)n3c2)n1` [3-{1-[(4-chlorophenyl)carbonyl]-3-(2,2-dimethylpropanoyl)-6-[(6-methylpyridin-2-yl)methoxy]indolizin-2-yl}-2,2-dimethylpropanoic acid] the value was 8.10; for `CC(C)(C)C(=O)c1c(CC(C)(C)C(=O)O)c(C(=O)c2ccc(Cl)cc2)n2ccc(OCc3ncccn3)cc12` [3-{3-[(4-chlorophenyl)carbonyl]-1-(2,2-dimethylpropanoyl)-7-(pyrimidin-2-ylmethoxy)indolizin-2-yl}-2,2-dimethylpropanoic acid], 7.19.

`CC(C)(C)C(=O)c1c(CC(C)(C)C(=O)O)c(C(=O)c2ccc(Cl)cc2)c2ccc(OCc3ccc4ccccc4n3)cn12`: the negative logarithm of the IC50 (pIC50) was 7.85. In the case of `Cc1csc(COc2ccn3c(C(=O)c4ccc(Cl)c(Cl)c4)c(CC(C)(C)C(=O)O)c(C(=O)C(C)(C)C)c3c2)n1` [3-{3-[(3,4-dichlorophenyl)carbonyl]-1-(2,2-dimethylpropanoyl)-7-[(4-methyl-1,3-thiazol-2-yl)methoxy]indolizin-2-yl}-2,2-dimethylpropanoic acid], the pIC50 is 9.00. `COc1ccc(C(=O)c2c(C[C@@H](C(=O)O)C(C)C)c(C(=O)C(C)(C)C)c3cc(OCc4csc(C)n4)ccn23)cc1` [(2R)-2-({1-(2,2-dimethylpropanoyl)-3-[(4-methoxyphenyl)carbonyl]-7-[(2-methyl-1,3-thiazol-4-yl)methoxy]indolizin-2-yl}methyl)-3-methylbutanoic acid]: the pIC50 was 8.15. For the compound `COc1cccc(COc2ccn3c(C(=O)c4ccc(Cl)cc4)c(CC(C)(C)C(=O)O)c(C(=O)C(C)(C)C)c3c2)n1` [3-{3-[(4-chlorophenyl)carbonyl]-1-(2,2-dimethylpropanoyl)-7-[(6-methoxypyridin-2-yl)methoxy]indolizin-2-yl}-2,2-dimethylpropanoic acid], the pIC50 was 8.10.

For the compound `Cc1nc(COc2ccn3c(C(=O)c4ccc(Cl)c(Cl)c4)c(CC(C)(C)C(=O)O)c(C(=O)C(C)(C)C)c3c2)cs1` [3-{3-[(3,4-dichlorophenyl)carbonyl]-1-(2,2-dimethylpropanoyl)-7-[(2-methyl-1,3-thiazol-4-yl)methoxy]indolizin-2-yl}-2,2-dimethylpropanoic acid], the pIC50 was 6.95. On to `COc1ccc(C(=O)c2c(CC(C(=O)O)C(C)C)c(C(=O)C(C)(C)C)c3cc(OCc4ccc5ccccc5n4)ccn23)cc1` (stereo not shown) [2-{[1-(2,2-dimethylpropanoyl)-3-[(4-methoxyphenyl)carbonyl]-7-(quinolin-2-ylmethoxy)indolizin-2-yl]methyl}-3-methylbutanoic acid], for which the pIC50 was 9.00. `COc1ccc(C(=O)c2c(CC(C(=O)O)C(C)C)c(C(=O)C(C)(C)C)c3cc(OCc4nc(C)cs4)ccn23)cc1` (stereo not shown) [2-({1-(2,2-dimethylpropanoyl)-3-[(4-methoxyphenyl)carbonyl]-7-[(4-methyl-1,3-thiazol-2-yl)methoxy]indolizin-2-yl}methyl)-3-methylbutanoic acid]: the negative logarithm of the IC50 (pIC50) is 8.40. For `Cc1nc(COc2ccn3c(C(=O)c4ccc(Cl)cc4)c(CC(C)(C)C(=O)O)c(C(=O)C(C)(C)C)c3c2)cs1` [3-{3-[(4-chlorophenyl)carbonyl]-1-(2,2-dimethylpropanoyl)-7-[(2-methyl-1,3-thiazol-4-yl)methoxy]indolizin-2-yl}-2,2-dimethylpropanoic acid], the pIC50 was 7.74. With `CC(C)c1ccn2c(C(=O)N(C)c3ccc(Br)cc3)c(CC(C)(C)C(=O)O)c(C(=O)C(C)(C)C)c2c1` [3-{3-[(4-bromophenyl)(methyl)carbamoyl]-1-(2,2-dimethylpropanoyl)-7-(propan-2-yl)indolizin-2-yl}-2,2-dimethylpropanoic acid], the pIC50 is 6.81. The value for `COc1ccc(C(=O)c2c(CC(C(=O)O)C(C)C)c(C(=O)C(C)(C)C)c3cc(OCc4cccc(C)n4)ccn23)cc1` (stereo not shown) [2-({1-(2,2-dimethylpropanoyl)-3-[(4-methoxyphenyl)carbonyl]-7-[(6-methylpyridin-2-yl)methoxy]indolizin-2-yl}methyl)-3-methylbutanoic acid] was 8.52; that for `Cc1nc(COc2ccn3c(C(=O)c4ccc(Cl)c(C)c4)c(CC(C)(C)C(=O)O)c(C(=O)C(C)(C)C)c3c2)cs1` [3-{3-[(4-chloro-3-methylphenyl)carbonyl]-1-(2,2-dimethylpropanoyl)-7-[(2-methyl-1,3-thiazol-4-yl)methoxy]indolizin-2-yl}-2,2-dimethylpropanoic acid] was 8.70; that for `CCCC(Cc1c(C(=O)C(C)(C)C)c2cc(OCc3cccc(C)n3)ccn2c1C(=O)c1ccc(OC)cc1)C(=O)O` (stereo not shown) [2-({1-(2,2-dimethylpropanoyl)-3-[(4-methoxyphenyl)carbonyl]-7-[(6-methylpyridin-2-yl)methoxy]indolizin-2-yl}methyl)pentanoic acid] was 8.52.

For `CCCC(Cc1c(C(=O)C(C)(C)C)c2cc(OCc3cccc(C)n3)ccn2c1C(=O)c1ccc(Cl)c(C)c1)C(=O)O` (stereo not shown) [2-({3-[(4-chloro-3-methylphenyl)carbonyl]-1-(2,2-dimethylpropanoyl)-7-[(6-methylpyridin-2-yl)methoxy]indolizin-2-yl}methyl)pentanoic acid], the pIC50 was 8.52. In the case of `COc1ccc(C(=O)c2c(CC(C(=O)O)C(C)C)c(C(=O)C(C)(C)C)c3cc(OCc4nc5ccccc5s4)ccn23)cc1` (stereo not shown) [2-({7-(1,3-benzothiazol-2-ylmethoxy)-1-(2,2-dimethylpropanoyl)-3-[(4-methoxyphenyl)carbonyl]indolizin-2-yl}methyl)-3-methylbutanoic acid], the pIC50 was 9.00. Turning to `CCCC(Cc1c(C(=O)C(C)(C)C)c2cc(OCc3cccc(C)n3)ccn2c1C(=O)c1ccc(Cl)c(Cl)c1)C(=O)O` (stereo not shown) [2-({3-[(3,4-dichlorophenyl)carbonyl]-1-(2,2-dimethylpropanoyl)-7-[(6-methylpyridin-2-yl)methoxy]indolizin-2-yl}methyl)pentanoic acid], the pIC50 is 8.70. Regarding `CC(C)(C)C(=O)c1c(CC(C)(C)C(=O)O)c(C(=O)c2ccc(Cl)cc2)n2ccc(OCc3nccs3)cc12` [3-{3-[(4-chlorophenyl)carbonyl]-1-(2,2-dimethylpropanoyl)-7-(1,3-thiazol-2-ylmethoxy)indolizin-2-yl}-2,2-dimethylpropanoic acid], the pIC50 is 7.60. With `Cc1nc(COc2ccc3c(C(=O)c4ccc(Cl)cc4)c(CC(C)(C)C(=O)NS(C)(=O)=O)c(C(=O)C(C)(C)C)n3c2)cs1` [3-{1-[(4-chlorophenyl)carbonyl]-3-(2,2-dimethylpropanoyl)-6-[(2-methyl-1,3-thiazol-4-yl)methoxy]indolizin-2-yl}-2,2-dimethyl-N-(methylsulfonyl)propanamide], the pIC50 is 8.40.
